US7202261B2, “Calcilytic compounds” (NPS Pharmaceuticals, Inc., priority 1996, dated 2007)
Counter-ions that a name gives are not always drawn.

Target: T1, human calcium receptor (Homo sapiens, UniProt P41180)
T1 construct: expressed in transfected cells
T1 sequence (P41180 20-1078): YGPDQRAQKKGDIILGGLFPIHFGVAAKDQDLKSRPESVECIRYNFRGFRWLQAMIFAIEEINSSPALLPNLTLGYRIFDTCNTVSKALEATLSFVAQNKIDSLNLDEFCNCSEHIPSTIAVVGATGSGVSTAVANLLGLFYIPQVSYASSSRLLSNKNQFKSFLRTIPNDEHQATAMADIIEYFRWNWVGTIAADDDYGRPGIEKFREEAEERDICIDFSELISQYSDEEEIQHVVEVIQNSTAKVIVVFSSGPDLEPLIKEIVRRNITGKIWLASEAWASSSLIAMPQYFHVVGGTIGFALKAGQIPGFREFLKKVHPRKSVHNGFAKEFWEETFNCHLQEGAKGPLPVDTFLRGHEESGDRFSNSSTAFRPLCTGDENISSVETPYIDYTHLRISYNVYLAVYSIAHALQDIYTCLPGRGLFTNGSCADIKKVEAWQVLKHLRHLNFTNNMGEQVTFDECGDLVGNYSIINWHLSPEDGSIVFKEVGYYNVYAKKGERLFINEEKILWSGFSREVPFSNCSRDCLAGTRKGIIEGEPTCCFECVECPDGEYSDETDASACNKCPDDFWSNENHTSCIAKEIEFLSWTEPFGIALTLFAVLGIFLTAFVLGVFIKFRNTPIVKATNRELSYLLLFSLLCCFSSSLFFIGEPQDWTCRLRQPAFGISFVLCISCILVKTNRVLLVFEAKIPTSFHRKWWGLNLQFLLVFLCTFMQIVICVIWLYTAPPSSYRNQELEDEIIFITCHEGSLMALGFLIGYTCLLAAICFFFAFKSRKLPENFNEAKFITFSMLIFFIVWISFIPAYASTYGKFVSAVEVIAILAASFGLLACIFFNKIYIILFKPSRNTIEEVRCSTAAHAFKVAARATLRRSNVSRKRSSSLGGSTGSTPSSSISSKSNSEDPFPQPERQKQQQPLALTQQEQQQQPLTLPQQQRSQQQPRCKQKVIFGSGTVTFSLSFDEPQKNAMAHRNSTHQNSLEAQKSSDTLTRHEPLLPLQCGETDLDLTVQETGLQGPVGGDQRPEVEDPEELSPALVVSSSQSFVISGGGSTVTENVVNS
Assay: Calcium Receptor Inhibitor Assay
Assay type: cell-based
Details: HEK 293 4.0–7 cells stably expressing the human calcium receptor; fluo-3; read-out: IC50 for blocking increases of intracellular Ca2+ elicited by extracellular Ca2+
Procedure, shortened: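 Intracellular Ca^2+ measured with fluo-3 at 37° C in stirred cell suspension. Buffer held 1 mM CaCl2 and 1 mg/mL D-glucose. Compound or vehicle added 90 seconds before extracellular Ca^2+ was raised from 1 to 2 mM, and calcilytic activity scored as concentration-dependent block of the intracellular Ca^2+ rise.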

Row | IC50 [µM] | SMILES
1 | < 10 | COc1ccc(CC(C)(C)NC[C@@H](O)COc2ccccc2)cc1 (single isomer, unassigned) [Compound 32, (R) or (S)—N-(2-Hydroxy-3-phenoxypropyl)-1,1-dimethyl-2-(4-methoxyphenyl)ethylamine Hydrochloride]
2 | < 1 | COc1ccc(CC(C)(C)NCC(O)COc2cccc(OC)c2)cc1 (centres unmarked) [Compound 38, N-[2-Hydroxy-3-(3-methoxyphenoxy)propyl]-1,1-dimethyl-2-(4-methoxyphenyl)ethylamine Hydrochloride]
